Results: US20260166016A1, “GPR139 RECEPTOR AGONIST, PREPARATION METHOD THEREFOR, AND APPLICATION THEREOF” (NEUBO APPTECH CO., LTD., priority 2022, published 2026)

Target: T1, GPR139 (Homo sapiens, UniProt Q6DWJ6)
T1 construct: expressed in transfected cells; host or cells: HEK293
T1 sequence (Q6DWJ6 1-353): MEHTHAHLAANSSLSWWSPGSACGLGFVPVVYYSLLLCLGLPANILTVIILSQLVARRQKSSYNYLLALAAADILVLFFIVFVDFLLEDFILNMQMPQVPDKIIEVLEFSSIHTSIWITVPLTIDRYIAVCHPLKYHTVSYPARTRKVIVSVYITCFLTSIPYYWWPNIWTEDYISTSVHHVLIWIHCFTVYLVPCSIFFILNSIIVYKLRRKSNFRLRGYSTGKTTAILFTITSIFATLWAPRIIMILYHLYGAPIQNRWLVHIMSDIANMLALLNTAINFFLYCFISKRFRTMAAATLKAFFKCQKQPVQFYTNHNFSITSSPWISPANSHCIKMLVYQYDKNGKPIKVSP
Assay: GPR139 FLIPR cell calcium signal detection in GPR139-transfected HEK293 cells
Format: cell-based
Conditions: HEK293 cells transfected with GPR139, read-out: EC50 values of compounds for GPR139
Method: HEK293 cells were grown in a 10 cm culture dish containing DMEM complete medium (containing glutamine, sodium pyruvate, penicillin/streptomycin, 10% fetal bovine serum) and incubated at 37° C. in a 5% CO2 incubator until 90% confluency. Then subculture twice a week at a ratio of 1:5. During cell passaging, the culture medium was first completely removed, washed once with 4 mL of DPBS, and then 3 mL of trypsin digestion solution was added and mixed well. When cell dissociation was observed, the trypsin solution was aspirated and 5 mL of complete DMEM medium was added. The cells were dispersed by pipetting, and 1 mL of cell suspension was added to each of five new 10 cm culture dishes. Then, 7 mL of complete DMEM medium was supplemented to each dish. After mixing, the cells were cultured at 37° C. in a 5% CO2 incubator.
On the transfection day, cells were digested and seeded into one 10 cm culture dish at appropriate density. 6 mL of DMEM/F12 medium (containing glutamine, sodium pyruvate, HEPES, and fetal bovine serum) was added, and the cells were cultured for 5 hours at 37° C. in 5% CO2. A 50 mL sterile centrifuge tube (Tube A) was taken, and 1 mL of serum-free DMEM/F12 medium (containing glutamine, sodium pyruvate, and HEPES) was added, followed by 10 μg of GPR139 DNA. The mixture was mixed well. Another 50 mL sterile centrifuge tube (Tube B) was taken, and 1 mL of serum-free DMEM medium (containing glutamine, sodium pyruvate, and HEPES) was added, followed by 60 μL of Fugene HD transfection reagent. The mixture was mixed well. 1 mL of Fugene HD transfection reagent from Tube B was transferred to Tube A, mixed well, and incubated at room temperature for 20 minutes. 2 mL of DMEM/F12 medium (containing glutamine, sodium pyruvate, HEPES, and fetal bovine serum) was added to Tube A. After mixing, 4 mL of mixture from Tube A was transferred to the prepared 10 cm dish (total volume 10 mL). The cells were cultured for 20-24 hours at 37° C. in 5% CO2.
The next day, the transfected cells were digested with trypsin digestion solution, and appropriate DMEM/F12 medium (containing glutamine, sodium pyruvate, HEPES, penicillin/streptomycin, fetal bovine serum) was added. The cells were seeded into Matrigel coated 384-well plates with a cell density of 6.67×10^6 cells/mL, 30 μL/well. The 384-well plates were cultured at 37° C. in 5% CO2.
On the third day, 10 μL/well of FLIPR dye (diluted in HEPES solution containing Pluronic and Probenecid) was added to the 384-well cell plate. And the plate was incubated for 40 minutes at 37° C. in 5% CO2. Diluted compounds were added to the cell plate and calcium signals were measured using a FLIPR plate reader.
Data were analyzed using XL-fit software to obtain EC50 values for each compound.

Row | SMILES | EC50 [nM]
1 | C[C@H](NC(=O)CNC(=O)c1cccc(F)c1)c1ccccc1F [NRB153] | 0.1 to 100
2 | C[C@H](NC(=O)CNC(=O)c1cccc(F)c1)c1c(F)cccc1F [NRB154] | 100 to 1000
3 | C[C@H](NC(=O)CNC(=O)c1cc(F)ccn1)c1ccccc1F [NRB156] | 100 to 1000
4 | C[C@H](NC(=O)CNC(=O)c1cccc(Cl)c1)c1cc(F)ccc1F [NRB178] | 0.1 to 100
5 | C[C@H](NC(=O)CNC(=O)c1cccc(Cl)c1)c1cccc(F)c1F [NRB180] | 0.1 to 100
6 | C[C@H](NC(=O)CNC(=O)c1cc(F)cc(F)c1)c1c(F)cccc1F [NRB202] | 0.1 to 100
7 | COc1cc(F)nc(C(=O)NCC(=O)N[C@@H](C)c2ccccc2F)c1 [NRB211] | 0.1 to 100
8 | C[C@H](NC(=O)CNC(=O)c1cc(F)cc(C(F)(F)F)n1)c1c(F)cccc1F [NRB214] | 100 to 1000
9 | COc1cc(F)nc(C(=O)NCC(=O)N[C@@H](C)c2c(F)cccc2F)c1 [NRB215] | 0.1 to 100
10 | C[C@H](NC(=O)CNC(=O)c1cc(Cl)cc(Cl)c1)c1c(F)cccc1F [NRB216] | 0.1 to 100
11 | COc1cc(Cl)cc(C(=O)NCC(=O)N[C@@H](C)c2c(F)cccc2F)n1 [NRB221] | 100 to 1000
12 | C[C@H](NC(=O)CNC(=O)c1cc(Cl)cc(C(F)(F)F)n1)c1c(F)cccc1F [NRB222] | 100 to 1000
13 | C[C@H](NC(=O)CNC(=O)c1cc(Cl)cc(F)n1)c1c(F)cc(F)cc1F [NRB225] | 0.1 to 100
14 | C[C@H](NC(=O)CNC(=O)c1cc(Cl)cc(C(F)(F)F)n1)c1c(F)cc(F)cc1F [NRB227] | 100 to 1000
